According to patent publication US8148404B2, “Modulators of CB1 receptors” (7TM Pharma A/S, priority 2006, dated 2012):
pIC50: −log10 of the molar value.

Target: T1, human CB1 receptor (Homo sapiens, UniProt P21554)
T1 construct: expressed in transfected cells; membranes used
Assay: Cannabinoid Receptor-1 functional assay: inhibition of CP55940-induced [35S]GTPγS binding to membranes of CHO-K1 cells expressing human CB1
Assay type: biochemical
Conditions: 3 nM CP55940, [35S]GTPγS SPA, hCB1 membranes; read-out: IC50 value for antagonizing a CB1 receptor agonist
Description: Transfection and Cell Culture—The cDNA encoding the human CB1 (Cannabinoid Receptor-1) receptor (GenBank accession number NM_016083) was cloned from a human adipose tissue cDNA library and cloned into the eukaryotic expression vector pcDNA3.1 (Invitrogen).
Chinese Hamster Ovary cells (CHO-K1) stably expressing recombinant human CB1 were generated by transfecting the plasmid containing the coding sequence of the human CB1 receptor in CHO-K1 cells, using lipofectamin, according to the manufacturer instructions. Resistant clones were selected in the presence of 600 μg/ml G418 (Life technology). Stably transfected CHO-K1 cells were maintained in Ham's F-12 culture medium (Invitrogen), supplemented with 10% fetal calf serum (Invitrogen), 100 U/ml penicillin, 100 μg/ml streptomycin (Life Technology), and 600 μg/ml G418.
Functional activities of the above examples of compounds of the invention were assessed in vitro by measuring their ability to inhibit CP55940-induced [^35S]GTPγS binding to membranes prepared from CHO-K1 cells expressing the human CB1 receptor (described in Transfection and Cell Culture). CP55940 is a well known non-selective CB1 and CB2 receptor agonist (e.g Felder et al., 1995, Molecular Pharmacology, (48) 443-50). Membranes were prepared by a standard procedure. Briefly, cells were harvested using 10 mM EDTA and collected by centrifugation. Pelleted cells were homogenized in ice-cold 20 mM Hepes (pH 7.4), 10 mM EDTA and protease inhibitors (Complete protease inhibitor cocktail tablet, Roche) using an Ultra Turrax Homogenizer. The homogenate was centrifuged at 14 000 rpm for 45 min. at 4° C. The resultant pellet was resuspended in the same buffer but with only 0.1 mM EDTA and was again centrifuged at 14 000 rpm for 45 min. at 4° C. The resulting pellet (membranes) was resuspended in 20 mM Hepes (pH 7.4), 0.1 mM EDTA, 2 mM MgCl2 and protease inhibitors and protein concentration was determined by Micro BCA Protein Assay Reagent Kit (Pierce Biotechnology) according to the manufacturer instructions. The [^35S]GTPγS SPA (Scintillation Proximity Assay) binding assay was performed by incubating 5 μg/well hCB1-membranes with 1 nM [^35S]GTPγS (Perkin Elmer—NEG 030H) in the presence of 3 nM of CP55940 and various concentrations of the test compounds at room temperature for 1 hr in 96-well microtiter plates. 0.4 mg/well SPA beads (PVT-WGA; RPNQ0001 Amersham Pharmacia Biotech) were then added and the incubation continued for further 30 min. on an orbital shaker. The assay buffer contained 50 mM HEPES (pH 7.5), 50 mM NaCl, 2.5 mM MgCl2, 0.1% BSA, 1 μM GDP and 100 μg/ml Saponin. Microtiter plates were centrifuged at 1500 rpm for 5 min. and radioactivity was read immediately using a Topcounter (PerkinElmer Life Sciences). Data were analyzed and IC50 values determined by non-linear regression using the Prism software (GraphPad Software, San Diego).

T1 sequence (P21554 whole entry): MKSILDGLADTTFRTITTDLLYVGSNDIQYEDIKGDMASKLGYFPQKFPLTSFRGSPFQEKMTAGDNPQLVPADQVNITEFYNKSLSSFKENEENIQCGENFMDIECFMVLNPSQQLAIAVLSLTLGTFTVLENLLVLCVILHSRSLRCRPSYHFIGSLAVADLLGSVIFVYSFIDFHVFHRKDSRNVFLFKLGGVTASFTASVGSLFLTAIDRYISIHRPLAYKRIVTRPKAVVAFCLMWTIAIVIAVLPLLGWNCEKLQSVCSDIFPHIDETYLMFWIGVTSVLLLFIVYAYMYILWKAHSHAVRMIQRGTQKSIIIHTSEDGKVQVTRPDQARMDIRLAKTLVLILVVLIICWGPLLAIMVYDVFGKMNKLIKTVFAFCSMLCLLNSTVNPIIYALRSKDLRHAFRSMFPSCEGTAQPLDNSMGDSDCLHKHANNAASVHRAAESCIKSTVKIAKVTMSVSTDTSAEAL

Row | SMILES | pIC50
1 | COC[C@@H]1CCCN1C(=O)c1nn(-c2ccccc2Cl)c(-c2ccc(Cl)cc2)c1CC(=O)O [[1.41], [1-(2-Chloro-phenyl)-5-(4-chloro-phenyl)-3-((S)-2-methoxymethyl-pyrrolidine-1-carbonyl)-1H-pyrazol-4-yl]-acetic acid] | 5.52 to 6.52
2 | O=C(O)Cc1c(C(=O)N2CCCC2)nn(-c2ccccc2Cl)c1-c1ccc(Cl)cc1 [[1.46], [1-(2-Chloro-phenyl)-5-(4-chloro-phenyl)-3-(pyrrolidine-1-carbonyl)-1H-pyrazol-4-yl]-acetic acid] | 5.52 to 6.52
3 | O=C(O)Cc1c(C(=O)N2CCCCC2)nn(-c2ccccc2Cl)c1-c1ccc(Cl)cc1 [[1.47], [1-(2-Chloro-phenyl)-5-(4-chloro-phenyl)-3-(piperidine-1-carbonyl)-1H-pyrazol-4-yl]-acetic acid] | 5.52 to 6.52
4 | O=C(O)Cc1c(C(=O)N2CCC(c3cccc(C(=O)O)c3)CC2)nn(-c2ccccc2Cl)c1-c1ccc(Cl)cc1 [[1.30], 3-{1-[4-Carboxymethyl-1-(2-chloro-phenyl)-5-(4-chloro-phenyl)-1H-pyrazole-3-carbonyl]-piperidin-4-yl}-benzoic acid] | 5.00 to 5.52
5 | O=C(c1nn(-c2ccccc2Cl)c(-c2ccc(Cl)cc2)c1Cc1nn[nH]n1)N1CCC(Oc2ccc(F)c(F)c2)CC1 [[3.8], [1-(2-Chloro-phenyl)-5-(4-chloro-phenyl)-4-(2H-tetrazol-5-ylmethyl)-1H-pyrazol-3-yl]-[4-(3,4-difluorophenoxy)-piperidin-1-yl]-methanone] | > 6.52
6 | O=C(O)C(O)c1c(C(=O)N2CCC(c3ccccc3F)CC2)nn(-c2ccccc2Cl)c1-c1ccc(Cl)cc1 (stereo not drawn) [Compound [1.65], {1-(2-Chloro-phenyl)-5-(4-chloro-phenyl)-3-[4-(2-fluoro-phenyl)-piperidine-1-carbonyl]-1H-pyrazol-4-yl}-2-hydroxy acetic acid] | > 6.52
7 | O=C(O)Cc1c(C(=O)N2CCC(c3ccc(F)cc3)C2)nn(-c2ccccc2Cl)c1-c1ccc(Cl)cc1 (stereo not drawn) [[1.15], {1-(2-Chloro-phenyl)-5-(4-chloro-phenyl)-3-[3-(4-fluoro-phenyl)-pyrrol-idine-1-carbonyl]-1H-pyrazol-4-yl}-acetic acid] | > 6.52
8 | CO[C@H]1CN(C(=O)c2nn(-c3ccccc3Cl)c(-c3ccc(Cl)cc3)c2CC(=O)O)CC[C@@H]1c1ccccc1 (relative stereo) [[1.56], {1-(2-Chloro-phenyl)-5-(4-chloro-phenyl)-3-[trans-4-phenyl-3-methoxy-piper-idine-1-carbonyl]-1H-pyrazol-4-yl}-acetic acid] | > 6.52
9 | O=C(O)Cc1c(C(=O)N2CCC(O)(c3cccc(C(F)(F)F)c3)CC2)nn(-c2ccccc2Cl)c1-c1ccc(Cl)cc1 [[1.11], {1-(2-Chloro-phenyl)-5-(4-chloro-phenyl)-3-[4-hydroxy-4-(3-trifluoromethyl-phenyl)-piperidine-1-carbonyl]-1H-pyrazol-4-yl}-acetic acid] | > 6.52
10 | O=C(O)COc1c(C(=O)N2CCC(c3ccc(F)cc3)CC2)nn(-c2ccccc2Cl)c1-c1ccc(Cl)cc1 [Compound [1.3], {5-(4-Chloro-phenyl)-1-(2-chloro-phenyl)-3-[4-(4-fluoro-phenyl)-piper-idine-1-carbonyl]-1H-pyrazol-4-yloxy}-acetic acid] | > 6.52
11 | O=C(O)Cc1c(C(=O)N2CCN(c3ncccn3)CC2)nn(-c2ccccc2Cl)c1-c1ccc(Cl)cc1 [[1.16], [5-(4-Chloro-phenyl)-1-(2-chloro-phenyl)-3-(4-pyrimidin-2-yl-piperazine-1-carbonyl)-1H-pyrazol-4-yl]-acetic acid] | 5.52 to 6.52
12 | CS(=O)(=O)c1cccc(C2CCN(C(=O)c3nn(-c4ccccc4Cl)c(-c4ccc(Cl)cc4)c3CC(=O)O)CC2)c1 [[1.57], {1-(2-Chloro-phenyl)-5-(4-chloro-phenyl)-3-[4-(3-methylsulfonyl-phenyl)-piperidine-1-carbonyl]-1H-pyrazol-4-yl}-acetic acid] | 5.52 to 6.52
13 | O=C(O)Cc1c(C(=O)N2CC[C@H](c3ccccc3)[C@@H](O)C2)nn(-c2ccccc2Cl)c1-c1ccc(Cl)cc1 [[1.44], [1-(2-Chloro-phenyl)-5-(4-chloro-phenyl)-3-((3R,4R)-3-hydroxy-4-phenyl-piperidine-1-carbonyl)-1H-pyrazol-4-yl]-acetic acid] | 5.52 to 6.52
14 | O=C(c1nn(-c2ccccc2Cl)c(-c2ccc(Cl)cc2)c1Cc1nn[nH]n1)N1CCC(Oc2cccc(F)c2)CC1 [[3.9], [1-(2-Chloro-phenyl)-5-(4-chloro-phenyl)-4-(2H-tetrazol-5-ylmethyl)-1H-pyrazol-3-yl]-[4-(3-fluorophenoxy)-piperidin-1-yl]-methanone] | > 6.52

The next lines start with the values.

Row | pIC50 | SMILES
15 | > 6.52 | O=C(c1nn(-c2ccccc2Cl)c(-c2ccc(Cl)cc2)c1Cc1nn[nH]n1)N1CCC(O)(c2ccc(F)cc2)CC1 [[3.2], [1-(2-Chloro-phenyl)-5-(4-chloro-phenyl)-4-(2H-tetrazol-5-ylmethyl)-1H-pyrazol-3-yl]-[4-(4-fluoro-phenyl)-4-hydroxy-piperidin-1-yl]-methanone]
16 | > 6.52 | O=C(O)Cc1c(C(=O)N2CCC(O)(c3ccccc3F)CC2)nn(-c2ccccc2Cl)c1-c1ccc(Cl)cc1 [[1.21], {1-(2-Chloro-phenyl)-5-(4-chloro-phenyl)-3-[4-(2-fluoro-phenyl)-4-hydroxy-piperidine-1carbonyl]-1H-pyrazol-4-yl}-acetic acid]
17 | > 6.52 | O=C(c1nn(-c2ccccc2Cl)c(-c2ccc(Cl)cc2)c1Cc1nn[nH]n1)N1CCC(c2ccccc2F)CC1 [[3.4], [1-(2-Chloro-phenyl)-5-(4-chloro-phenyl)-4-(2H-tetrazol-5-ylmethyl)-1H-pyrazol-3-yl]-[4-(2-fluoro-phenyl)-piperidin-1-yl]-methanone]
18 | > 6.52 | O=C(O)Cc1c(C(=O)N2CCC(c3ccc(C(F)(F)F)cc3)CC2)nn(-c2ccccc2Cl)c1-c1ccc(Cl)cc1 [[1.28], {1-(2-Chloro-phenyl)-5-(4-chloro-phenyl)-3-[4-(4-trifluoromethyl-phenyl)-piperidine-1-carbonyl]-1H-pyrazol-4-yl}-acetic acid]
19 | > 6.52 | O=C(O)Cc1c(C(=O)N2CCC(O)(c3ccc(F)c(Cl)c3)CC2)nn(-c2ccccc2Cl)c1-c1ccc(Cl)cc1 [[1.43], [3-[4-(3-Chloro-4-fluoro-phenyl)-4-hydroxy-piperidine-1-carbonyl]-1-(2-chloro-phenyl)-5-(4-chloro-phenyl)-1H-pyrazol-4-yl]-acetic acid]
20 | > 6.52 | O=C(O)Cc1c(C(=O)N2CC(Oc3ccc(F)cc3)C2)nn(-c2ccccc2Cl)c1-c1ccc(Cl)cc1 [[1.60], {1-(2-Chloro-phenyl)-5-(4-chloro-phenyl)-3-[3-(4-fluorophenoxy)-azetidine-1-carbonyl]-1H-pyrazol-4-yl}-acetic acid]
21 | > 6.52 | O=C(O)Cc1c(C(=O)N2CCC(c3cccs3)CC2)nn(-c2ccccc2Cl)c1-c1ccc(Cl)cc1 [[1.23], [5-(4-Chloro-phenyl)-1-(2-chloro-phenyl)-3-(4-thiophen-2-yl-piperidine-1-carbonyl)-1H-pyrazol-4-yl]-acetic acid]
22 | > 6.52 | N#Cc1cccc(C2CCN(C(=O)c3nn(-c4ccccc4Cl)c(-c4ccc(Cl)cc4)c3CC(=O)O)CC2)c1 [[1.34], {1-(2-Chloro-phenyl)-5-(4-chloro-phenyl)-3-[4-(3-cyano-phenyl)-piperidine-1-carbonyl]-1H-pyrazol-4-yl}-acetic acid]
23 | > 6.52 | O=C(O)Cc1c(C(=O)N2CCC(c3ccc(F)cc3)CC2)nn(-c2ccccc2Cl)c1-c1ccc(Cl)cc1 [[1.5], {5-(4-Chloro-phenyl)-1-(2-chloro-phenyl)-3-[4-(4-fluoro-phenyl)-piperidine-1-carbonyl]-1H-pyrazol-4-yl}-acetic acid]
24 | > 6.52 | O=C(O)Cc1c(C(=O)N2CCC(c3cccc(F)c3)C2)nn(-c2ccccc2Cl)c1-c1ccc(Cl)cc1 (stereo not drawn) [[1.55], {1-(2-Chloro-phenyl)-5-(4-chloro-phenyl)-3-[3-(3-fluoro-phenyl)-pyrrolidine-1-carbonyl]-1H-pyrazol-4-yl}-acetic acid]
